Assay results reported in patent publication US12655106B2 (Eikonizo Therapeutics, Inc., priority 2021, dated 2026).

Experiments:
Full length Human HDAC8 = target: T1, Full length Human HDAC8 (Homo sapiens, UniProt Q9BY41); experiment: Caliper endpoint assay for HDAC enzymatic activity (HDAC8); format: biochemical; settings: in vitro enzymatic, 30 min pre-incubation, 1 μM substrate peptide
T1 construct: Full length Human HDAC8; HIS (N); host or cells: baculovirus expression system
T1 sequence (Q9BY41 1-377): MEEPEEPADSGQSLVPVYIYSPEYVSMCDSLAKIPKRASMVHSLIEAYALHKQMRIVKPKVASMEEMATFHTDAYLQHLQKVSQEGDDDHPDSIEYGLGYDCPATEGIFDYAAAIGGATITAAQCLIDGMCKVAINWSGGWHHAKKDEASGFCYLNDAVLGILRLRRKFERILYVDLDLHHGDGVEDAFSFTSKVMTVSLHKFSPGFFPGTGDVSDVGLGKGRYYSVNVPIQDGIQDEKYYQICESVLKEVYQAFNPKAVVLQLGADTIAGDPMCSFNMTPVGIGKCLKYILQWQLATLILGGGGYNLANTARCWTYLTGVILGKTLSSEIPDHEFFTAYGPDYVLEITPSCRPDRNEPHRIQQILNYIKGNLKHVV

Full length Human HDAC6 = target: T2, Full length Human HDAC6 (Homo sapiens, UniProt Q9UBN7); experiment: Caliper endpoint assay for HDAC enzymatic activity (HDAC6); format: biochemical; settings: for IC50: in vitro enzymatic, Caliper endpoint assay, 30 min pre-incubation, 1 μM substrate peptide; for Selectivity (6 v 8): ratio of HDAC8 IC50/HDAC6 IC50
T2 construct: Full length Human HDAC6; FLAG (C); host or cells: baculovirus expression system
T2 sequence (Q9UBN7 1-1215): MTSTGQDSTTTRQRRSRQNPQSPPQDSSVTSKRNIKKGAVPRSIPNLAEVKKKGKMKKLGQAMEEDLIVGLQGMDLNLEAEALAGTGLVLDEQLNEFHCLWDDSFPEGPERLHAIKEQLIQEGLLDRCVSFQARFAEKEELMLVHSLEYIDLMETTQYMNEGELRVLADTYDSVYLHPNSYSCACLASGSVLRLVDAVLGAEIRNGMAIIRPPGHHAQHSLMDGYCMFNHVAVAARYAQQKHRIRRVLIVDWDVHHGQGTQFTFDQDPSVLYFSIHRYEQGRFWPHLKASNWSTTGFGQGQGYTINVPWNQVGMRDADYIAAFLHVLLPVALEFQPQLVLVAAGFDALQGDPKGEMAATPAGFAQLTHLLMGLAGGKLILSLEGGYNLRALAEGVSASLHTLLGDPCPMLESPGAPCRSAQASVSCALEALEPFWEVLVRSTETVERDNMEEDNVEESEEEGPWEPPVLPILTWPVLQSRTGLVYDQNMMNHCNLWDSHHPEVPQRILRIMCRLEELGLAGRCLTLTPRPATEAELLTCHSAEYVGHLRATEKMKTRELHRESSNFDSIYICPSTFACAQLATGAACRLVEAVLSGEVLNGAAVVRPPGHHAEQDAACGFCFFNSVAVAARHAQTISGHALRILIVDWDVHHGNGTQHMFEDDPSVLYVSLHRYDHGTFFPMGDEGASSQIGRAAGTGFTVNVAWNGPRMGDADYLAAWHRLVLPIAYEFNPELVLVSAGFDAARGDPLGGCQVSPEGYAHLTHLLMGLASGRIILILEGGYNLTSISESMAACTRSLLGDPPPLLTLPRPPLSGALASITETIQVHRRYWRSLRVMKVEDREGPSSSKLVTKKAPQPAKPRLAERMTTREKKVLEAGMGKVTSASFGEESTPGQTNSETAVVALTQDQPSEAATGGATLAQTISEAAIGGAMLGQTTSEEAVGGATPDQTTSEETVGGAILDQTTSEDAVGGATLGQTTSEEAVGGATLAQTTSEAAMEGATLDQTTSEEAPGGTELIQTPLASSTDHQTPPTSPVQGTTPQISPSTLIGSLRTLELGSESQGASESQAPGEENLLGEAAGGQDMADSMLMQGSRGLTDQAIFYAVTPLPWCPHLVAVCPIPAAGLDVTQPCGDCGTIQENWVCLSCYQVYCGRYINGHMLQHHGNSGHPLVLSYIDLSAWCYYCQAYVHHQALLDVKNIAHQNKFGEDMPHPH

SMILES | IC50 (Full length Human HDAC8) | IC50 (Full length Human HDAC6) | Selectivity (6 v 8) (Full length Human HDAC6)
CC[C@@H]1Cc2c(F)cc(C(=O)NO)cc2CN1C[C@@]12C[C@@H](CO1)N(C)C2 (single isomer, unassigned) [Compound 555] | > 100000 nM | > 100000 nM | V (V: >1000)
CC[C@H]1Cc2c(F)cc(C(=O)NO)cc2CN1CC1CC2CCC(C1)N2C (single isomer, unassigned) [Compound 570] | 10000 to 100000 nM | 1 to 100 nM | V (V: >1000)
CC[C@@H]1Cc2c(F)cc(C(=O)NO)cc2CN1CC1CC2CCC(C1)N2C (single isomer, unassigned) [Compound 571] | 1000 to 10000 nM | 100 to 1000 nM | III (III: >10-100)
CC[C@@H]1Cc2c(F)cc(C(=O)NO)cc2CN1C[C@H]1C[C@H]2CC[C@@H](C1)N2C (single isomer, unassigned) [Compound 572] | 1000 to 10000 nM | 1 to 100 nM | III (III: >10-100)
CC[C@H]1Cc2c(F)cc(C(=O)NO)cc2CN1C[C@@H]1C[C@H]2CC[C@@H](C1)N2C (single isomer, unassigned) [Compound 573] | 1000 to 10000 nM | 1 to 100 nM | IV (IV: >100-1000)
CC[C@H]1Cc2c(F)cc(C(=O)NO)cc2CN1CC1CC2CCC(C1)N2C1CC1 (single isomer, unassigned) [Compound 576] | 1000 to 10000 nM | 1 to 100 nM | IV (IV: >100-1000)
CC[C@@H]1Cc2c(F)cc(C(=O)NO)cc2CN1C1CC2(CCN(C)CC2)C1 (single isomer, unassigned) [Compound 594] | > 100000 nM | 1 to 100 nM | V (V: >1000)
CC[C@H]1Cc2c(F)cc(C(=O)NO)cc2CN1C1CCC1 (single isomer, unassigned) [Compound 597] | 10000 to 100000 nM | 100 to 1000 nM | IV (IV: >100-1000)
CC[C@@H]1Cc2c(F)cc(C(=O)NO)cc2CN1C1CC2(CCN(C3CC3)CC2)C1 (single isomer, unassigned) [Compound 598] | 10000 to 100000 nM | 100 to 1000 nM | IV (IV: >100-1000)
CC[C@H]1Cc2c(F)cc(C(=O)NO)cc2CN1C1CC2(CCN(C3CC3)CC2)C1 (single isomer, unassigned) [Compound 599] | 10000 to 100000 nM | 100 to 1000 nM | IV (IV: >100-1000)
CC[C@H]1Cc2c(F)cc(C(=O)NO)cc2CN1C1COC1 (single isomer, unassigned) [Compound 601] | 10000 to 100000 nM | 1 to 100 nM | IV (IV: >100-1000)
CC[C@@H]1Cc2c(F)cc(C(=O)NO)cc2CN1C1CC2(CCN(C(C)=O)CC2)C1 (single isomer, unassigned) [Compound 602] | 10000 to 100000 nM | 100 to 1000 nM | III (III: >10-100)
CC[C@H]1Cc2c(F)cc(C(=O)NO)cc2CN1C1CC2(CCN(C(C)=O)CC2)C1 (single isomer, unassigned) [Compound 603] | 10000 to 100000 nM | 100 to 1000 nM | IV (IV: >100-1000)
O=C(NO)c1cc(F)c(CN2C3CCC2CC(=NO)C3)cc1F [Compound 54] | 100 to 1000 nM | 1 to 100 nM | III (III: >10-100)
O=C(NO)c1cc(F)c2c(c1)CCN1CCC[C@@H]21 [Compound 79] | 1000 to 10000 nM | 1 to 100 nM | IV (IV: >100-1000)
O=C(NO)c1cc(F)c2c(c1)CCN1CCC[C@H]21 [Compound 80] | 1000 to 10000 nM | 100 to 1000 nM | III (III: >10-100)

Second part, the molecule after the results:

IC50 (Full length Human HDAC8) | IC50 (Full length Human HDAC6) | Selectivity (6 v 8) (Full length Human HDAC6) | SMILES
10000 to 100000 nM | 1 to 100 nM | IV (IV: >100-1000) | CC[C@H]1Cc2c(F)cc(C(=O)NO)cc2CN1C[C@@]12C[C@@H](CO1)N(C)C2 (single isomer, unassigned) [Compound 553]
1000 to 10000 nM | 1 to 100 nM | IV (IV: >100-1000) | CC[C@@H]1Cc2c(F)cc(C(=O)NO)cc2CN1C[C@]12C[C@H](CO1)N(C)C2 (single isomer, unassigned) [Compound 554]
10000 to 100000 nM | 100 to 1000 nM | III (III: >10-100) | CC[C@@H]1Cc2c(F)cc(C(=O)NO)cc2CN1C1CCCC1 (single isomer, unassigned) [Compound 580]
10000 to 100000 nM | 100 to 1000 nM | III (III: >10-100) | CC[C@H]1Cc2c(F)cc(C(=O)NO)cc2CN1C1CCCC1 (single isomer, unassigned) [Compound 581]
10000 to 100000 nM | 100 to 1000 nM | III (III: >10-100) | CC[C@@H]1Cc2c(F)cc(C(=O)NO)cc2CN1C1CCCCC1 (single isomer, unassigned) [Compound 582]
10000 to 100000 nM | 100 to 1000 nM | III (III: >10-100) | CC[C@H]1Cc2c(F)cc(C(=O)NO)cc2CN1C1CCCCC1 (single isomer, unassigned) [Compound 583]
10000 to 100000 nM | 100 to 1000 nM | IV (IV: >100-1000) | CC[C@@H]1Cc2c(F)cc(C(=O)NO)cc2CN1C1CC2(C1)CN(C)C2 (single isomer, unassigned) [Compound 584]
1000 to 10000 nM | 100 to 1000 nM | III (III: >10-100) | CC[C@H]1Cc2c(F)cc(C(=O)NO)cc2CN1C1CC2(C1)CN(C)C2 (single isomer, unassigned) [Compound 585]
10000 to 100000 nM | 100 to 1000 nM | III (III: >10-100) | CC[C@@H]1Cc2c(F)cc(C(=O)NO)cc2CN1C1CC2(CCOCC2)C1 (single isomer, unassigned) [Compound 590]
10000 to 100000 nM | 1 to 100 nM | IV (IV: >100-1000) | CC[C@H]1Cc2c(F)cc(C(=O)NO)cc2CN1C1CC2(CCOCC2)C1 (single isomer, unassigned) [Compound 591]
10000 to 100000 nM | 100 to 1000 nM | IV (IV: >100-1000) | CC[C@@H]1Cc2c(F)cc(C(=O)NO)cc2CN1C1CC(C)(C)C1 (single isomer, unassigned) [Compound 592]
10000 to 100000 nM | 100 to 1000 nM | IV (IV: >100-1000) | CC[C@H]1Cc2c(F)cc(C(=O)NO)cc2CN1C1CC(C)(C)C1 (single isomer, unassigned) [Compound 593]
10000 to 100000 nM | 100 to 1000 nM | IV (IV: >100-1000) | CC[C@H]1Cc2c(F)cc(C(=O)NO)cc2CN1C1CC2(CCN(C)CC2)C1 (single isomer, unassigned) [Compound 595]
10000 to 100000 nM | 1 to 100 nM | IV (IV: >100-1000) | CC[C@@H]1Cc2c(F)cc(C(=O)NO)cc2CN1C1CCC1 (single isomer, unassigned) [Compound 596]
1000 to 10000 nM | 1 to 100 nM | IV (IV: >100-1000) | CC[C@@H]1Cc2c(F)cc(C(=O)NO)cc2CN1C1COC1 (single isomer, unassigned) [Compound 600]
1000 to 10000 nM | 1 to 100 nM | – | CC[C@H](c1ccccc1)N1CCc2cc(C(=O)NO)cc(F)c2C1 [Compound 30]
1000 to 10000 nM | 1 to 100 nM | – | CC[C@@H](c1ccccc1)N1CCc2cc(C(=O)NO)cc(F)c2C1 [Compound 31]
1000 to 10000 nM | 1 to 100 nM | – | CC[C@@H]1CCCN1Cc1ccc(C(=O)NO)cc1F [Compound 48]
1000 to 10000 nM | 100 to 1000 nM | – | CC[C@H]1CCCN1Cc1ccc(C(=O)NO)cc1F [Compound 49]
